Assay results as given in publication PMC3625590, “NBM-T-L-BMX-OS01, Semisynthesized from Osthole, Is a Novel Inhibitor of Histone Deacetylase and Enhances Learning and Memory in Rats” (Evidence-based Complementary and Alternative Medicine : eCAM, 2013).

Key:
Sco-induced amnesia rats [1] = assay: Water-maze learning, Sco-induced memory impairment; assay type: in vivo, Sprague-Dawley rats; conditions: Sco 1.5 mg/kg/d; BMX or SAHA 5 mg/kg/d i.p.
Method: SAHA was supplied by NatureWise Biotech and Medicals Corporation (Taipei, Taiwan). […] (St. Louis, MO, USA). The BMX and SAHA stock (100 mg/mL) was dissolved in DMSO and diluted with saline to a final concentration of 0.5 mg/mL (in 0.5% DMSO/saline). […] SD rats were randomly divided into 3 groups. For the naïve animal experiments, the BMX-injected or SAHA-injected groups were injected with BMX (5 mg/kg/d) or SAHA (5 mg/kg/d) intraperitoneally 7 d prior to behavioral experiments and during the experimentation. The control group received the 0.5% DMSO/saline injection. The injection volume was 10 μL/g of body weight. The injections were performed once per day. For the amnesia experiment, the protocol was adopted from previous studies with modifications. […] The control group received the 0.5% DMSO/saline injection. The injection volume was 10 μL/g of body weight. […] The method was adopted from that of a previous study with modifications. A plastic circular pool 2.0 m in diameter and 0.6 m in height was filled with water (25 ± 2°C) to a depth of 20 cm. A circular platform (8 cm in diameter) was placed at a specific location from the edge of the pool and submerged 2-3 cm below the water surface. Water was made cloudy by adding toxic-free dye. Distinctive visual cues were set on the wall. For spatial learning, animals were subjected to 3 trials per day, with one trial early in the morning, one trial at noon, and another in the late afternoon. The training procedure lasted 4 days, and a total of 12 trials were given. This procedure was adopted because spaced training is a better paradigm to facilitate memory consolidation. For these trials, the rats were positioned at different starting points spaced equally around the perimeter of the pool in random order. They had 120 s to find the hidden platform. If a rat could not find the platform, it was guided to the platform and was allowed to remain there for 20 s. The time each animal took to reach the platform was recorded as the escape latency. A probe trial of 120 s was given on day 5 to test their memory retention. The rats were placed in the pool with the platform removed, and the time they spent in each quadrant (Quadrants 1, 2, 3, and 4) was recorded. Quadrant 4 is the target quadrant. For the trained and swimming control experiments, rats in the trained group were subjected to the regular water maze learning procedure. At the end of the experiment, the rats were subjected to visible platform learning. For visible platform learning, a flag was mounted on the platform, and the platform was raised 2.5 cm above the surface of the water. In addition, the dye had not been added, so that the animals could see the location of the platform from the water. […]

Sco-induced amnesia rats [2] = assay: Novel object recognition, Sco-induced memory impairment; assay type: in vivo, Sprague-Dawley rats; conditions: Sco 1.5 mg/kg/d; BMX or SAHA 5 mg/kg/d i.p.; 8 h
Method: SAHA was supplied by NatureWise Biotech and Medicals Corporation (Taipei, Taiwan). […] (St. Louis, MO, USA). The BMX and SAHA stock (100 mg/mL) was dissolved in DMSO and diluted with saline to a final concentration of 0.5 mg/mL (in 0.5% DMSO/saline). […] SD rats were randomly divided into 3 groups. For the naïve animal experiments, the BMX-injected or SAHA-injected groups were injected with BMX (5 mg/kg/d) or SAHA (5 mg/kg/d) intraperitoneally 7 d prior to behavioral experiments and during the experimentation. The control group received the 0.5% DMSO/saline injection. The injection volume was 10 μL/g of body weight. The injections were performed once per day. For the amnesia experiment, the protocol was adopted from previous studies with modifications. […] The control group received the 0.5% DMSO/saline injection. The injection volume was 10 μL/g of body weight. […] The method used was adopted from that of a previous study with modifications. During familiarization, rats were allowed to explore 2 identical objects in an open field box (90 × 70 × 60 cm) for 5 min. The criteria used for exploration were a distance less than 1.5 cm between the rat and the object or direct contact with the object. […] The time that each rat spent exploring the 2 objects during a 5 min period was recorded. […]

HDAC8 = target: T1, HDAC8 (Homo sapiens, UniProt Q9BY41); conditions: cited from earlier work
T1 sequence (Q9BY41 1-377): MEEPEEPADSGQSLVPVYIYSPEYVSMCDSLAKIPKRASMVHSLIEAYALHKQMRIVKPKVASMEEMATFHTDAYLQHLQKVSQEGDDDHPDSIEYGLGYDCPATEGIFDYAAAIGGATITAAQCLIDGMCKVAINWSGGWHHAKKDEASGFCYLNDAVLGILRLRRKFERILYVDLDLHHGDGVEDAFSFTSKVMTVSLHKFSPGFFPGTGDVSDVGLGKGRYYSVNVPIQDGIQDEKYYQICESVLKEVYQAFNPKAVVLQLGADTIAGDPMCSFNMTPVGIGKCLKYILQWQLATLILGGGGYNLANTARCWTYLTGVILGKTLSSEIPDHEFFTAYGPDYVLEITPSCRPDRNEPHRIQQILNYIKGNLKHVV

O=C(CCCCCCC(=O)Nc1ccccc1)NO [SAHA, suberoylanilide hydroxamic acid, reference compound]
escape latency in finding the hidden platform (Sco-induced amnesia rats [1]): attenuates Sco-induced longer escape latency | probe trial, time spent in target quadrant (Sco-induced amnesia rats [1]): spent more time in the target quadrant | exploratory preference for the novel object (NO) (Sco-induced amnesia rats [2]): showed no exploratory preference for the NO | inhibition of HDAC8 deacetylase activity (HDAC8): little inhibition of HDAC8
